Measurements taken from publication PMC10041521, “Fluorescent Activity-Based Probe To Image and Inhibit Factor XIa Activity in Human Plasma” (Journal of Medicinal Chemistry, 2023).
Where “and” joins values, the source holds several entries; their conditions need not be identical. Identical values can stand only once. [ ]: non-standard residue; d: D form. The star is where a group is joined. ACC = NC(=O)Cc1cc(=O)oc2cc(N*)ccc12; Nle = CCCC[C@H](N)C(=O)O; OBn = c1ccc(CO*)cc1; Bn = c1ccc(C*)cc1

What was measured:
Format in all cases: biochemical
fXIa [1] = target: T1, fXIa (Homo sapiens, UniProt P03951); assay: Screening of individual substrates (hydrolysis rate, RFU/s); design: complete conversion of the single chain zymogen to the two-chain active form; made in house; host or cells: HEK293 cells expressing EBNA (pCEP4 vector); conditions: substrate 1 μM, 5 nM fXIa, RFU/s over 30 min, 37 °C
T1 sequence (P03951 388-625 limits assumed): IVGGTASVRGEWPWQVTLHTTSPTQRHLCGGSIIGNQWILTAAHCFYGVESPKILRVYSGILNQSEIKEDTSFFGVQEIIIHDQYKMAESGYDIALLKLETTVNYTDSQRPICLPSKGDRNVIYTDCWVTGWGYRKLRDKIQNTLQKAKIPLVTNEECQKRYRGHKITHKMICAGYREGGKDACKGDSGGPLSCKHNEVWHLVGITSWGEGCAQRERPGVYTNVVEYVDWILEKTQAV
T1 sequence (P03951 19-387 partner limits assumed): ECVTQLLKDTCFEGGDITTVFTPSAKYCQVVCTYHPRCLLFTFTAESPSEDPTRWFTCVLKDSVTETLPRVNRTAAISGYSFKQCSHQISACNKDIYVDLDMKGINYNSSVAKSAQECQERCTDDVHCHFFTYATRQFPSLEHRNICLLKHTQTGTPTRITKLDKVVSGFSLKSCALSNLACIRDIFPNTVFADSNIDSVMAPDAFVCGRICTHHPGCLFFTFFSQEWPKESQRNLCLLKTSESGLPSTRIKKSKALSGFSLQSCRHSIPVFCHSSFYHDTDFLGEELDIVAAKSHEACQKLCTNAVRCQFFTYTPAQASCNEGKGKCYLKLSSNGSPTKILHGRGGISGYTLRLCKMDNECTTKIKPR
Procedure: (§1) All kinetic assays were performed using a spectrofluorometer (Molecular Devices SpectraMax Gemini XPS) on 96-well, white, flat bottom, nontreated plates (Corning). The parameters were as follows: excitation/emission wavelength, 355/460 nm (cutoff, 455 nm); varying concentrations of substrates, ABPs, inhibitor, and enzymes. The assay buffer (20 mM Tris-base, 150 mM NaCl, 5 mM CaCl2, pH 7.4) was prepared at room temperature, and the enzyme kinetic studies were performed at 37 °C. All enzymes were preincubated in assay buffer for 15 min at 37 °C before addition to the wells. Each assay was repeated at least twice, and the data represent the average of these repetitions. The obtained results were analyzed using SoftMax (Molecular Devices), GraphPad Prism, and Microsoft Excel software.
All potentially selective fXIa substrates were tested for their selectivity against four coagulation factors, APC, thrombin, fXa, and fXIa at a concentration of 1 μM. The assay conditions were as follows: 1 μL of each substrate was placed in separate wells on the plate followed by the addition of 99 μL of preincubated enzyme (15 min, 37 °C) in assay buffer. To obtain reliable results and a robust fluorescence signal, the final enzyme concentration was 120 nM for APC, 20 nM for thrombin, 70 nM for fXa, and 5 nM for fXIa. Substrate hydrolysis was measured for 30 min (λex = 355 nm, λem = 460 nm), and the linear part of each progress curve was used to determine the substrate hydrolysis rate (RFU/s). The obtained RFU/s were then adjusted to represent the value corresponding to the same enzyme activity.

APC = target: T2, APC (Homo sapiens, UniProt P04070); assay: Kinetic parameters (kcat/KM) of ACC-labeled substrates; conditions: Michaelis-Menten, 425 nM APC, assay buffer pH 7.4, 37 °C, ACC release 30 min; mean ± s.d., n = 3
T2 construct: from tissue; host or cells: fresh frozen plasma
T2 sequence (P04070 212-461 limits assumed): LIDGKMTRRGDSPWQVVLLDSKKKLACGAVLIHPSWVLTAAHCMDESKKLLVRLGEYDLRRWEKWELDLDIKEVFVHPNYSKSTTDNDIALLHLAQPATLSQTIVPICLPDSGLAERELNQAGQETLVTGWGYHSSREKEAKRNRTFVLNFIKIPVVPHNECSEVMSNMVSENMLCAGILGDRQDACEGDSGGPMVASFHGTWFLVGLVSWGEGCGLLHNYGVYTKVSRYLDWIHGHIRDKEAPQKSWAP
T2 sequence (P04070 43-197 partner limits assumed): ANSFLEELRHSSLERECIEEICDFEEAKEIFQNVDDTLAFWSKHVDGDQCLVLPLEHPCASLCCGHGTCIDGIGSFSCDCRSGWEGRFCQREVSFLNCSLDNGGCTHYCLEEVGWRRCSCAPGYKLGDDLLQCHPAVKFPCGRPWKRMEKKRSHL
Procedure: (§2) Protein C, factor X, and prothrombin were purified from fresh frozen plasma and then activated as previously described.[33]
as §1
(§3) The kinetic parameters (kcat, KM, and kcat/KM) of selected ACC-labeled substrates were determined using Michaelis–Menten nonlinear regression according to the protocol described by Poreba et al.[62] Each substrate was serially diluted until the eighth well to obtain substrate concentrations ranging from 1.16 nM to 111 μM depending on the substrate used. Next, each enzyme was preincubated (15 min, 37 °C) in assay buffer to a final enzyme concentration of 425 nM for APC, 70 nM for thrombin, 200 nM for fXa, and 5 nM for fXIa and was added to the wells containing eight different substrate concentrations. The release of ACC was measured for 30 min (λex = 355 nm, λem = 460 nm). The linear part of each progression curve was used to calculate the kinetic parameters using GraphPad Prism and Microsoft Excel software.

fXIa [2] = target: T1, fXIa; assay: as above; design: complete conversion of the single chain zymogen to the two-chain active form; made in house; host or cells: HEK293 cells expressing EBNA (pCEP4 vector); conditions: for kcat/KM fXIa: Michaelis-Menten, 5 nM fXIa, 20 mM Tris, 150 mM NaCl, 5 mM CaCl2, pH 7.4, 37 °C, ACC release 30 min, mean ± s.d., n = 3
Procedure: as §1, §3

fXa = target: T3, fXa (Homo sapiens, UniProt P00742); assay: as above; conditions: Michaelis-Menten, 200 nM fXa, assay buffer pH 7.4, 37 °C, ACC release 30 min; mean ± s.d., n = 3
T3 construct: from tissue; host or cells: fresh frozen plasma
T3 sequence (P00742 235-488 limits assumed): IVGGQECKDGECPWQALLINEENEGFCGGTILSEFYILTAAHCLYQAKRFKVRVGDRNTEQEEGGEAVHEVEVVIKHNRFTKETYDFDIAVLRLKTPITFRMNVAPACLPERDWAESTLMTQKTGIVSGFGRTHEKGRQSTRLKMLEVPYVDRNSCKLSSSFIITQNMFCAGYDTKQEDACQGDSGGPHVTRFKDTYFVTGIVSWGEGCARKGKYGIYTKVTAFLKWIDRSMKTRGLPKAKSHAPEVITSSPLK
T3 sequence (P00742 41-179 partner limits assumed): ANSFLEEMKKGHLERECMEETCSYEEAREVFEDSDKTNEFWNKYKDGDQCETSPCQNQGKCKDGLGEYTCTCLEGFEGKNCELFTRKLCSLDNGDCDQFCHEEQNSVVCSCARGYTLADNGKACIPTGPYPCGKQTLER
Procedure: as §2, §1, §3

thrombin = target: T4, thrombin (Homo sapiens, UniProt P00734); assay: as above; conditions: Michaelis-Menten, 70 nM thrombin, assay buffer pH 7.4, 37 °C, ACC release 30 min; mean ± s.d., n = 3
T4 construct: from tissue; host or cells: fresh frozen plasma
Procedure: as §2, §1, §3

fXIa [3] = target: T1, fXIa; assay: Detection of fXIa in human plasma with fluorescent ABP; conditions: EDTA plasma, 60 min, 37 °C
Procedure: Human plasma (collected in tubes containing anticoagulant EDTA) was isolated from whole blood as described elsewhere[33] and incubated with a fluorescently labeled probe at probe concentrations ranging from 1 to 20 μM. Incubation was carried out in assay buffer for 60 min at 37 °C. Plasma was incubated with the probe in a total volume of 40 μL (20 μL of plasma and 20 μL of probe) followed by reduction with 20 μL of 3 × SDS/DTT for 5 min at 95 °C. The first well was loaded with 0.5 μL of the protein marker PageRuler Prestained Protein Ladder (Thermo Scientific), and then 5 μL of each sample was run on a 12% (w/v) 15-well gel. SDS–PAGE separation was performed at 200 V for 39 min followed by transfer to a nitrocellulose membrane (0.2 μm, Bio-Rad) at 10 V for 60 min. The membrane was blocked with 2.5% BSA in TBS-T for 60 min at room temperature. Next, the membrane was treated with sheep antihuman polyclonal fXI antibody (Haematologic Technologies Inc., PAHFXI-S, 1:1000) for 7 h followed by incubation with Alexa Fluor 680 donkey antisheep secondary antibody (Life Technologies, A21102, 2:10,000) for 1 h (both at room temperature). The membrane was then scanned using an Azure Biosystems Sapphire Biomolecular Imager and Azure Spot Analysis software for fXIa at 488 nm (for BODIPY detection) and 658 nm (for antibody detection).

fXIa [4] = target: T1, fXIa; assay: Labeling of purified coagulation factors with ABPs, SDS-PAGE and blot; design: complete conversion of the single chain zymogen to the two-chain active form; made in house; host or cells: HEK293 cells expressing EBNA (pCEP4 vector); conditions: APC, thrombin, fXa, fXIa 200 nM each, separately, probe/enzyme 1:1, 30 min, 37 °C; for labeling of purified coagulation factors by biotinylated ABP (western blot): streptavidin Alexa Fluor 647, 658 nm
Procedure: To determine biotin-labeled ABPs selectivity, four purified coagulation factors (APC, thrombin, fXa, and fXIa) with a constant concentration of 200 nM were incubated separately with each probe (the probe/enzyme ratio was 1) in assay buffer for 30 min at 37 °C. Each enzyme was incubated with each probe in a volume of 40 μL followed by reduction with 20 μL of 3 × SDS/DTT for 5 min at 95 °C. The first well was loaded with 0.5 μL of the protein marker PageRuler Prestained Protein Ladder (Thermo Scientific), and then 10 μL of each sample was run on a 12% (w/v) 15-well gel. SDS–PAGE separation was performed at 200 V for 39 min followed by a wet tank transfer to a nitrocellulose membrane (0.2 μm, Bio-Rad) at 10 V for 60 min. The membrane was blocked with 2.5% BSA in TBS-T (Tris-buffered saline with 0.1% (v/v) Tween 20) for 60 min at room temperature. Next, the membrane was incubated with fluorescent streptavidin Alexa Fluor 647 conjugate (dilution 1:10,000 in TBS-T with 1% BSA) for 60 min. The biotin-labeled ABPs were detected at 658 nm using an Azure Biosystems Sapphire Biomolecular Imager and Azure Spot Analysis software.
For fluorescently labeled probe sample preparation, electrophoresis and membrane transfer were performed as described above. When testing the inhibitor utility, 200 nM fXIa was incubated with inhibitor (final inhibitor concentration 5 μM) for 60 min prior to probe addition. After the membrane was blocked with 2.5% BSA in TBS-T (60 min), the labeled proteins were directly imaged with a […] laser using an Azure Biosystems Sapphire Biomolecular Imager and Azure Spot Analysis software.

fXIa [5] = target: T1, fXIa; assay: P1 substrate specificity, defined library Ac-Ala-Arg-Leu-P1-ACC; design: complete conversion of the single chain zymogen to the two-chain active form; made in house; host or cells: HEK293 cells expressing EBNA (pCEP4 vector); conditions: individual substrates Ac-Ala-Arg-Leu-P1-ACC, 100 μM, 8 nM fXIa, RFU/s, best residue = 100%, n = 2
Procedure: as §1
To determine fXIa preferences at the P1 position, we used the Ac-Ala-Arg-Leu-P1-ACC library of 133 individual fluorogenic substrates.[34] The assay conditions were as follows: 0.5 μL of each library substrate was placed in one well, and 99.5 μL of preincubated enzyme (15 min, 37 °C) was added. The final library concentration was 100 μM, and the enzyme concentration was 8 nM. The release of ACC was measured for 30 min (λex = 355 nm, λem = 460 nm), but only the linear portion of each progress curve was used to determine the substrate hydrolysis rate (RFU/s, relative fluorescence unit per second). […]

## Ac-Tyr(2,6-Cl2-Z)-2-Aoc-Glu(Bzl)-Arg-ACC [SMXI7]
fXIa [1]
  decrease in activity relative to SMXI3 (P2 L-His(Bzl)): 1.5 fold

## Ac-Tyr(2,6-Cl2-Z)-2-Aoc-Nle(O-Bzl)-Arg-ACC [SMXI22]
fXIa [1]
  decrease in activity relative to SMXI3 (P2 L-His(Bzl)): 2.6 fold

## Ac-Tyr(2,6-Cl2-Z)-2-Aoc-hSer(Bzl)-Arg-ACC [SMXI23]
fXIa [1]
  decrease in activity relative to SMXI3 (P2 L-His(Bzl)): 5.5 fold

## Ac-Tyr(2,6-Cl2-Z)-Dht-His(Bzl)-Arg-ACC [SMXI19]
APC
  kcat/KM APC: 91 ± 3 M⁻¹ s⁻¹
fXIa [2]
  kcat/KM fXIa: 247,000 ± 5,000 M^-1 s^-1 and 247,000 ± 5000 M^-1 s^-1
fXIa [2]; fXIa over fXa
  fold better hydrolyzed by fXIa than by fXa (kcat/KM ratio): 80 fold
fXIa [2]; fXIa over thrombin
  fold better hydrolyzed by fXIa than by thrombin (kcat/KM ratio): 28 fold

## Ac-Tyr(2,6-Cl2-Z)-Nle-Glu(Bzl)-Arg-ACC [SMXI5]
fXa
  kcat/KM fXa: 4,500 ± 300 M^-1 s^-1
thrombin
  kcat/KM thrombin: 11,000 ± 300 M^-1 s^-1
fXIa [2]
  kcat/KM fXIa: 99,000 ± 7,000 M^-1 s^-1

## Ac-Y(Bn)[Nle]E(OBn)R-{ACC} (SMILES CCCC[C@H](NC(=O)[C@H](Cc1ccc(OCc2ccccc2)cc1)NC(C)=O)C(=O)N[C@@H](CCC(=O)OCc1ccccc1)C(=O)N[C@@H](CCCNC(=N)N)C(=O)Nc1ccc2c(CC(N)=O)cc(=O)oc2c1) [SMXI13]
fXIa [1]; more active than SMXI5
  activity on fXIa relative to SMXI5: fourfold

## BODIPY-PEG(4)-Tyr(2,6-Cl2-Z)-Nle-Glu(Bzl)-ArgP(OPh)2 [P-SMXI52]
fXIa [3]; probe 1-20 μM, SDS-PAGE, 488 nm, costaining with antifXI antibody
  probe concentration from which a clear fXIa band is observed in human plasma: ≥ 2 µM
fXIa [3]; probe up to 20 μM
  selectivity of labeling in human plasma: remained selective even at a high probe concentration (20 μM)
fXIa [4]
  labeling of purified coagulation factors by fluorescent ABP (blot, 488 nm): only one fluorescent band generated by fXIa labeling and no off-target signals

## L-Arg
fXIa [5]
  relative activity at the P1 position: 100%

## biotin-PEG(4)-Tyr(2,6-Cl2-Z)-Dht-His(Bzl)-ArgP(OPh)2 [P-SMXI191]
fXIa [4]
  labeling of purified coagulation factors by biotinylated ABP (western blot): only one signal from a protein between 35 and 40 kDa, corresponding to a fXIa monomer

## biotin-PEG(4)-Tyr(2,6-Cl2-Z)-Nle-Glu(Bzl)-ArgP(OPh)2 [P-SMXI51]
fXIa [4]
  labeling of purified coagulation factors by biotinylated ABP (western blot): only one signal from a protein between 35 and 40 kDa, corresponding to a fXIa monomer
